Reference: US8642656B2, “Calixarene-based peptide conformation mimetics, methods of use, and methods of making” (priority 2004, dated 2014)

System: HUVEC
Assay: EC migration, wound healing assay
Format: cell-based, human
Details: 25 μM
Description: EC migration was measured in the wound healing assay. HUVEC were cultured in triplicate on a 1-mg/ml fibronectin coat in a 24-well tissue culture plate. Cells were grown for 3 days until confluence. When confluent, a wound was made in the well, using a blunt glass pipette. The medium was replaced with medium containing 10 ng/ml bFGF with or without 25 μM compound and at 0, 2, 4, 6, and 8 hours, the wound width was measured at four different predefined places. Photographs were made using an inverted microscope and a Contax 167 MT 35 mm camera.

With “5,11,17,23-Tetra-tert-butyl-25,27-bis(2-guanidinoethoxy)-26,28-dihydroxy calix[4]arene trifluoroacetic acid salt [Compound 27]” the “effect on EC migration, wound assay (in words)” value was “as effective as βpep-25 and more effective than 40”.
